# Data: PMC3674138 (Clinical cancer research : an official journal of the …, 2013)
# Read-outs that look alike come from different tables or passages of the source.
# Key:
# [1] = cited from earlier work
# [2] = Unbound vismodegib plasma concentration; assay type: in vivo, human; conditions: for unbound vismodegib concentrations: after daily dosing 150 mg, mean ± SD
# [3] = Adverse events at least possibly related to vismodegib during daily dosing; assay type: in vivo, human
# advanced solid tumors = experiment: Anticancer activity by RECIST 1.1 in advanced solid tumor patients; assay type: in vivo, human
# [4] = test system: basal cell carcinoma (BCC); conditions: oral 150 mg daily, cited from earlier work
# [5] = high permeability, low solubility; cited from earlier work
# clinical [6] = conditions: human, in vivo, 150 mg, AUC0–168
# clinical [7] = conditions: human, in vivo, 150 mg, AUC0–24
# [8] = all patients during daily dosing (both groups)
# [9] = 46 patients evaluable for response, 150 mg daily
compound,measurement,setting,value
CS(=O)(=O)CCNCc1ccc(-c2ccc3ncnc(Nc4ccc(OCc5cccc(F)c5)c(Cl)c4)c3c2)o1 [lapatinib],increase in exposure (area-under-the-curve; AUC) with food,[1],150%
CS(=O)(=O)c1ccc(C(=O)Nc2ccc(Cl)c(-c3ccccn3)c2)c(Cl)c1 [vismodegib],unbound vismodegib concentrations,[2]; fasting group,79 ± 53 ng/mL
same,unbound vismodegib concentrations,[2]; fed group,103 ± 49 ng/mL
same,Steady-state unbound drug concentrations as share of total concentrations,"[2]; daily dosing, fasting and fed groups",less than 1%
same,"Alopecia, All grades (%)","[3]; Fasting (n=31), 150 mg daily",4 (13) n (%)
same,"Anorexia, All grades (%)","[3]; Fasting (n=31), 150 mg daily",9 (29) n (%)
same,"Diarrhea, All grades (%)","[3]; Fasting (n=31), 150 mg daily",4 (13) n (%)
same,"Dizziness, All grades (%)","[3]; Fasting (n=31), 150 mg daily",3 (10) n (%)
same,"Dysgeusia, All grades (%)","[3]; Fasting (n=31), 150 mg daily",8 (26) n (%)
same,"Dyspnea, All grades (%)","[3]; Fasting (n=31), 150 mg daily",3 (10) n (%)
same,"Fatigue, All grades (%)","[3]; Fasting (n=31), 150 mg daily",11 (35) n (%)
same,"Fatigue, Grade 3 (%)","[3]; Fasting (n=31), 150 mg daily",2 (6) n (%)
same,"Hyperglycemia, All grades (%)","[3]; Fasting (n=31), 150 mg daily",2 (6) n (%)
same,"Hyperkalemia, All grades (%)","[3]; Fasting (n=31), 150 mg daily",1 (3) n (%)
same,"Hypophosphatemia, All grades (%)","[3]; Fasting (n=31), 150 mg daily",3 (10) n (%)
same,"Hypophosphatemia, Grade 3 (%)","[3]; Fasting (n=31), 150 mg daily",1 (3) n (%)
same,"Myalgia, All grades (%)","[3]; Fasting (n=31), 150 mg daily",6 (19) n (%)
same,"Nausea, All grades (%)","[3]; Fasting (n=31), 150 mg daily",10 (32) n (%)
same,"Vomiting, All grades (%)","[3]; Fasting (n=31), 150 mg daily",4 (13) n (%)
same,"Weight loss, All grades (%)","[3]; Fasting (n=31), 150 mg daily",5 (16) n (%)
same,"Alopecia, All grades (%)","[3]; Fed (n=30), 150 mg daily",1 (3) n (%)
same,"Anorexia, All grades (%)","[3]; Fed (n=30), 150 mg daily",13 (43) n (%)
same,"Diarrhea, All grades (%)","[3]; Fed (n=30), 150 mg daily",3 (10) n (%)
same,"Dizziness, All grades (%)","[3]; Fed (n=30), 150 mg daily",2 (7) n (%)
same,"Dysgeusia, All grades (%)","[3]; Fed (n=30), 150 mg daily",13 (43) n (%)
same,"Fatigue, All grades (%)","[3]; Fed (n=30), 150 mg daily",11 (37) n (%)
same,"Fatigue, Grade 3 (%)","[3]; Fed (n=30), 150 mg daily",1 (3) n (%)
same,"Hyperglycemia, All grades (%)","[3]; Fed (n=30), 150 mg daily",1 (3) n (%)
same,"Hyperkalemia, All grades (%)","[3]; Fed (n=30), 150 mg daily",1 (3) n (%)
same,"Hyperkalemia, Grade 3 (%)","[3]; Fed (n=30), 150 mg daily",1 (3) n (%)
same,"Myalgia, All grades (%)","[3]; Fed (n=30), 150 mg daily",7 (23) n (%)
same,"Nausea, All grades (%)","[3]; Fed (n=30), 150 mg daily",9 (30) n (%)
same,"Neutropenia, All grades (%)","[3]; Fed (n=30), 150 mg daily",1 (3) n (%)
same,"Neutropenia, Grade 3 (%)","[3]; Fed (n=30), 150 mg daily",1 (3) n (%)
same,"Vomiting, All grades (%)","[3]; Fed (n=30), 150 mg daily",3 (10) n (%)
same,"Weight loss, All grades (%)","[3]; Fed (n=30), 150 mg daily",2 (7) n (%)
same,"anorexia, any grade, frequency",[3]; [8],36%
same,"dysgeusia, any grade, frequency",[3]; [8],34%
same,"fatigue, Grade 3, frequency",[3]; [8],5%
same,"fatigue, any grade, frequency",[3]; [8],36%
same,"hyperkalemia, Grade 3, frequency",[3]; [8],2%
same,"hypophosphatemia, Grade 3, frequency",[3]; [8],2%
same,"nausea, any grade, frequency",[3]; [8],31%
same,"neutropenia, Grade 3, frequency",[3]; [8],2%
same,objective responses (RECIST 1.1),advanced solid tumors; [9],no objective responses
same,patients with stable disease,advanced solid tumors; [9],Nine
same,range of duration of stable disease,"advanced solid tumors; patients with stable disease, longest in a patient with BCC",8 to 152 weeks
same,response rate,[4]; locally advanced BCC,43%
same,response rate,[4]; metastatic BCC,30%
same,Biopharmaceutics Classification System class,[5],2
same,AUC(0-t),clinical [6],417 µg·h/mL
same,AUC(0-t),clinical [7],239 µg·h/mL
